Source: patent USRE39591E1, “6-O-substituted ketolides having antibacterial activity” (Abbott Laboratories, priority 1996, dated 2007)

Test system: up to 32 different microorganisms
Assay: in vitro antibacterial activity (MIC), agar dilution on Brain Heart Infusion (BHI) agar with Steers replicator
Type: cell-based
Conditions: unit assumed
Method: Representative compounds of the present invention were assayed in vitro for antibacterial activity as follows: Twelve petri dishes containing successive aqueous dilutions of the test compound mixed with 10 mL of sterilized Brain Heart Infusion (BHI) agar (Difco 0148-01-5) were prepared. Each plate was inoculated with 1:100 (or 1:10 for slow-growing strains, such as Micrococcus and Streptococcus) dilutions of up to 32 different microorganisms, using a Steers replicator block. The inoculated plates were incubated at 35°-37° C. for 20 to 24 hours. In addition, a control plate, using BHI agar containing no test compound, was prepared and incubated at the beginning and end of each test.
An additional plate containing a compound having known susceptibility patterns for the organisms being tested and belonging to the same antibiotic class as the test compound was also prepared and incubated as a further control, as well as to provide test-to-test comparability. Erythromycin A was used for this purpose.
After incubation, each plate was visually inspected. The minimum inhibitory concentration (MIC) was defined as the lowest concentration of drug yielding no growth, a slight haze, or sparsely isolated colonies on the inoculum spot as compared to the growth control.

[1] = Candida albicans CCH 442 (code TT)
[2] = Enterococcus faecism ATCC 8043 (code II)
[3] = Escherichia coli DC-2 (code SS)
[4] = Escherichia coli JUHL (code QQ)
[5] = Haemophilis influenzae DILL AMP R (code WW)
[6] = Micrococcus luteus ATCC 4698 (code PP)
[7] = Micrococcus luteus ATCC 9341 (code OO)
[8] = Mycobacterium smegmatis ATCC 114 (code UU)
[9] = Nocardia Asteroides ATCC9970 (code VV)
[10] = Staphylococcus aureus 1775 (code GG)
[11] = Staphylococcus aureus A5177 (code BB)
[12] = Staphylococcus aureus A-5278 (code CC)
[13] = Staphylococcus aureus ATCC 6538P (code AA)
[14] = Staphylococcus aureus CMX 553 (code FF)
[15] = Staphylococcus aureus CMX 642A (code DD)
[16] = Staphylococcus aureus NCTC10649M (code EE)
[17] = Staphylococcus epidermidis 3519 (code HH)
[18] = Streptococcus Pneumonia 5649 (code ZZA)
[19] = Streptococcus Pneumonia 5979 (code ZZ)
[20] = Streptococcus Pneumonia ATCC6303 (code XX)
[21] = Streptococcus Pneumonia GYR 1171 (code YY)
[22] = Streptococcus agalactiae CMX 508 (code KK)
[23] = Streptococcus bovis A-5169 (code JJ)
[24] = Streptococcus pyogenes 930 (code MM)
[25] = Streptococcus pyogenes EES61 (code LL)
[26] = Streptococcus pyogenes PIU 2548 (code NN)

| Compound | MIC [1] [µg/mL] | MIC [2] [µg/mL] | MIC [3] [µg/mL] | MIC (Escherichia coli SS (code RR)) [µg/mL] | MIC [5] [µg/mL] | MIC [6] [µg/mL] | MIC [9] [µg/mL] | MIC [10] [µg/mL] | MIC [11] [µg/mL] | MIC [12] [µg/mL] | MIC [13] [µg/mL] | MIC [14] [µg/mL] | MIC [15] [µg/mL] | MIC [16] [µg/mL] | MIC [17] [µg/mL] | MIC [18] [µg/mL] | MIC [19] [µg/mL] | MIC [20] [µg/mL] | MIC [22] [µg/mL] | MIC [24] [µg/mL] | further results |
| --- | --- | --- | --- | --- | --- | --- | --- | --- | --- | --- | --- | --- | --- | --- | --- | --- | --- | --- | --- | --- | --- |
| CC[C@H]1OC(=O)[C@H](C)C(=O)[C@H](C)[C@@H](O[C@@H]2O[C@H](C)C[C@H](N(C)C)[C@H]2O)[C@@](C)(OCC=Cc2ccc(OC)cc2)C[C@@H](C)C(=O)[C@H](C)[C@@H](O)[C@]1(C)O [Example 16, Compound of Formula (VIII): X is O, R is —CH2CH═CH-(4-methoxyphenyl)] | > 100 | 0.78 | > 100 | 6.2 | 128 | 0.78 | 1.56 | > 100 | 1.56 | > 100 | 1.56 | 1.56 | 1.56 | 1.56 | 1.56 | 2 | 128 | 1 | 0.39 | > 100 | MIC [4]: > 100 µg/mL; MIC [7]: 0.2 µg/mL; MIC [8]: 3.2 µg/mL; MIC [21]: 0.25 µg/mL; MIC [23]: 0.2 µg/mL; MIC [25]: 0.39 µg/mL; MIC [26]: 0.78 µg/mL |
| CC[C@H]1OC(=O)[C@H](C)C(=O)[C@H](C)[C@@H](O[C@@H]2O[C@H](C)C[C@H](N(C)C)[C@H]2O)[C@@](C)(OCC=Cc2ccc(Cl)cc2)C[C@@H](C)C(=O)[C@H](C)[C@@H](O)[C@]1(C)O [Example 17, Compound of Formula (VIII): X is O, R is —CH2CH═CH-(4-chlorophenyl)] | 50 | 1.56 | > 100 | 12.5 | 64 | 0.78 | 3.1 | 50 | 1.56 | 50 | 1.56 | 1.56 | 1.56 | 1.56 | 1.56 | 2 | 32 | 1 | 0.78 | 25 | MIC [4]: > 100 µg/mL; MIC [7]: 0.39 µg/mL; MIC [8]: 3.1 µg/mL; MIC [21]: 0.5 µg/mL; MIC [23]: 0.39 µg/mL; MIC [25]: 0.78 µg/mL; MIC [26]: 0.78 µg/mL |
| CC[C@H]1OC(=O)[C@H](C)C(=O)[C@H](C)[C@@H](O[C@@H]2O[C@H](C)C[C@H](N(C)C)[C@H]2O)[C@@](C)(OCC=Cc2cnc3ccccc3c2)C[C@@H](C)C(=O)[C@H](C)[C@@H](O)[C@]1(C)O [Example 18, Compound of Formula (VIII): X is O, R is —CH2CH═CH-(3-quinolyl)] | > 100 | 0.2 | > 100 | 0.39 | 16 | 0.2 | 0.1 | > 100 | 0.2 | > 100 | 0.2 | 0.2 | 0.2 | 0.2 | 0.2 | 0.25 | 128 | 0.03 | 0.2 | 100 | MIC [4]: > 100 µg/mL; MIC [25]: 0.2 µg/mL; MIC [26]: 0.1 µg/mL |
| C=CCO[C@@]1(C)C[C@@H](C)C(=O)[C@H](C)[C@H]2OC(=O)O[C@]2(C)[C@@H](CC)OC(=O)[C@H](C)C(=O)[C@H](C)[C@H]1O[C@@H]1O[C@H](C)C[C@H](N(C)C)[C@H]1O [Example 71, Compound of Formula (IX): L is CO, T is O, R is —CH2CH═CH2] | > 100 | 1.56 | > 100 | 3.1 | 64 | 0.78 | 0.39 | > 100 | 0.39 | > 100 | 0.78 | 3.1 | 1.56 | 0.78 | 3.1 | 1 | > 128 | 0.25 | 0.2 | > 100 | MIC [4]: > 100 µg/mL; MIC [8]: 25 µg/mL; MIC [21]: 0.25 µg/mL; MIC [23]: 0.2 µg/mL; MIC [25]: 0.39 µg/mL; MIC [26]: 0.39 µg/mL |
| CC[C@H]1OC(=O)[C@H](C)C(=O)[C@H](C)[C@@H](O[C@@H]2O[C@H](C)C[C@H](N(C)C)[C@H]2O)[C@@](C)(OCC=Cc2ccccc2)C[C@@H](C)C(=O)[C@H](C)[C@H]2OC(=O)O[C@@]21C [Example 72, Compound of Formula (IX): L is CO, T is O, R is —CH2CH═CH-Phenyl] | > 100 | 0.05 | > 100 | 0.78 | 8 | 0.1 | 0.1 | 100 | 0.1 | > 100 | 0.1 | 0.2 | 0.1 | 0.1 | 0.1 | 0.5 | 64 | 0.06 | 0.01 | 50 | MIC [7]: 0.01 µg/mL; MIC [8]: 0.78 µg/mL; MIC [21]: 0.06 µg/mL; MIC [23]: 0.01 µg/mL; MIC [25]: < 0.005 µg/mL; MIC [26]: 0.2 µg/mL |
